The values below come from article PMC5944028, “Nonclinical and clinical pharmacological characterization of the potent and selective cathepsin K inhibitor MIV-711” (Journal of Translational Medicine, 2018).

Read-outs that look alike come from different tables or passages of the source.

The test system of experiment [1] is plasma CTX-I. In words: Monkey plasma CTX-I, repeat oral doses. The experiment is classed as in vivo, cynomolgus monkeys (Macaca fascicularis). The procedure:
Repeat dosing experiments were performed in four male monkeys from the group outlined above (Covance). Vehicle or MIV-711 (30 µmol/kg) was given via oral gavage once daily for 5 days between 7:30 and 8:30 a.m. Plasma for CTX-I measurements was collected on Day 1 at baseline, 1, 2, 4, 8 and 12 h after dose, on Days 2, 3 and 4 early in the morning before next dose (i.e. at trough), and on Day 5 at trough, 1, 2, 4, 8, 12 and 24 h after dose. [drawing 2]
The quantification of CTX-I in monkey plasma samples and human serum samples was performed using a commercially available kit (Serum CrossLaps ELISA, IDS Nordic, Herlev, Denmark). The levels of CTX-I in monkey urine samples were measured using a commercially available kit (Urine BETA CrossLaps ELISA, IDS Nordic). The quantification of NTX-I in monkey samples was performed using a commercially available kit (Osteomark NTx Urine, Wampole Laboratories, Inc, Princeton, USA). Urinary levels of CTX-II in monkey samples were measured using a commercially available kit (Urine CrossLaps EIA, IDS Nordic). The concentrations of biomarkers in the urine samples were corrected for creatinine concentrations. The creatinine levels in urine were determined at Swedish University of Agricultural Sciences, using the enzymatic assay (cat no. 8L24-01) on the Abbott system Architect c4000.

Experiment [2] deals with T1, human cathepsin V (Homo sapiens, UniProt O60911).
T1 construct: purchased R & D Systems
The experiment is described as follows: Enzyme assay, human cathepsin V. The experiment is classed as biochemical. The text has this:
(§1) Recombinant cathepsin K enzymes from all species were expressed in E. coli, purified and activated. Human cathepsin F and cathepsin S were expressed in Baculovirus, purified and activated. Purified human cathepsins B and H (Athens Research Technology), cathepsin L (Calbiochem), and cathepsin V (R & D Systems) were purchased.
(§2) H-D-Ala_Leu-Lys-AMC was used as the substrate in assays of cathepsin K from non-rodent species (human, dog, rabbit and guinea pig), and Z-Leu-Arg-AMC was used as the substrate in assays of cathepsin K from rodent species (mouse and rat). […]
(§3) Assays were carried out in white polystyrene 96-well plates in a final volume of 100 µL. […] Plates were read in a Fluoroskan Ascent (Thermo Labsystems, Helsinki, Finland) in kinetic mode, with excitation and emission filters of 390 and 460 nm, respectively. Rates were determined by linear regression of the fluorescence/time data in Excel. Rates were fitted by non-linear regression to either the competitive inhibition equation, with the substrate concentration fixed at the value in the assay and the KM fixed to the value previously determined, or the IC50 equation using GraphPad Prism (GraphPad, version 6, San Diego, USA) to obtain Ki or IC50 values, respectively.

Experiment [3] relates to urinary CTX-II. The conditions noted are these: cited from earlier work.
Experiment [4] has as its target T2, mouse cathepsin K (Mus musculus, UniProt P55097).
T2 construct: made in house; host or cells: E. coli
In words: Recombinant enzyme assay, mouse cathepsin K. The experiment is classed as biochemical. The conditions noted are these: footnote a: IC50.
From the text: as §1, §2, §3

Experiment [5] addresses T3, human cathepsin F (Homo sapiens, UniProt Q9UBX1).
T3 construct: made in house
In words: Enzyme assay, human cathepsin F. It is filed as biochemical.
From the text: as §1, §2, §3

Where [6] appears, read: 30 µmol/kg p.o. once daily, Day 5.

T3 sequence (Q9UBX1 271-484): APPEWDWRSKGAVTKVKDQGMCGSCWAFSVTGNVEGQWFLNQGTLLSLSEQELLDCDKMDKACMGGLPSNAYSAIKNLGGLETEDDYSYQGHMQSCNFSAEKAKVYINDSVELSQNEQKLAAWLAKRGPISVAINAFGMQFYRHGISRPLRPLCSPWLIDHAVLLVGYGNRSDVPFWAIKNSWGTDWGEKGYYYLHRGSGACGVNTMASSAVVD
T1 sequence (O60911 114-334): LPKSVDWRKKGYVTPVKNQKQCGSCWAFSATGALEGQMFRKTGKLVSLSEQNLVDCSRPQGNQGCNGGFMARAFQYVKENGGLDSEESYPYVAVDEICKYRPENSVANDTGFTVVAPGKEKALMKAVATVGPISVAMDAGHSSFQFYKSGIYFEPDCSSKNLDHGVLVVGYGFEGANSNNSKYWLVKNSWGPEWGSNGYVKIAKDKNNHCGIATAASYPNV
T2 sequence (P55097 115-329): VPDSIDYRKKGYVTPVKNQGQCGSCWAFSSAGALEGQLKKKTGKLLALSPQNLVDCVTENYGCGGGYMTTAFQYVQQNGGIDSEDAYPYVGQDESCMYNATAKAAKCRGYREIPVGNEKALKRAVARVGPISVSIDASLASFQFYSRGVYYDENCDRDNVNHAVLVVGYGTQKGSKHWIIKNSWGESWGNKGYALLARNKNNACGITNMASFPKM

Usually Ki stands for a measure of affinity in units of concentration, obtained from inhibition or displacement. In general, IC50 refers to the concentration that inhibits the measured activity by half. As for `C#C[C@@H]1CN(C(=O)[C@H](CC(C)C)NC(=O)c2ccc(-c3nc(N4CCN(C)CC4)sc3F)cc2)[C@@H]2C(=O)CO[C@H]12` [MIV-711], the “Maximum reduction of plasma CTX-I from baseline” value in experiment [1] (30 µmol/kg p.o. once daily, Day 1, 12 h post dose) was determined as 76%. For the same compound, the “Maximal reduction of plasma CTX-I vs initial baseline” value in experiment [1] (setting [6]) is reported as 67%. The “Trough plasma CTX-I lower than baseline” value in experiment [1] (setting [6]) was 38%; in experiment [1] (30 µmol/kg p.o., after the first dose on Day 1), 48%. Also, the Ki turned out to be 4000 nM in experiment [2] and 2800 nM in experiment [5]. The “Reduction of urinary CTX-II” value is 72% in experiment [3] (healthy subjects, 200 mg daily for 7 days) and 55% in experiment [3] (postmenopausal women, 100 mg once daily for 1 month). For the same compound, in experiment [4], the IC50 came out at 1000 nM.
